Laboratory results taken from US7569695B2, “Dyes for the detection or quantification of desirable target molecules” (Enzo Life Sciences, Inc., priority 2005, dated 2009).

What was measured:
[1] = test system: 78 bp amplicon of the anti-sense C construct; experiment: Amplification on the Light Cycler in the presence of Dye 122 and 109a, 19 cycles (Example 35); format: biochemical
Source text: A target template was amplified on the Light Cycler (Roche) in the presence of various amounts of SYBR Green and Dye 122 from Example 32. In addition, a byproduct from the silica gel chromatography of Dye 109 in step (g) of Example 14 was also used. This compound is believed to have a single protonation of one of the amines of Dye 109 and as such will be termed Dye 109a. The stock of Dye 122 was OD=200 measured at 488 nm and the stock of Dye 109a was OD=200 measured at 498 nm. The template was a 1:50,000 dilution of the 78 bp amplicon of the anti-sense C construct described previously. • A master-mixture was made up of: • 350 µl of 2×PCR mix described in Example 33 • 14 l of 25 mM MgCl2 • 175.0 l of DEPC treated H2O • 7 l of 10 mg/ml BSA (New England Biolabs, Beverly, Mass.) • 7 l Taq polymease (Perkin Elmer)+7 l of TaqStart (Clontech)
2.0 l of target template+2.0 l of various dye dilutions were added to 16 µl of Master mixture, and then amplified as described previously in Example 33 except that the incubation at 45° C. for 10 minutes was eliminated since ung was not used for this series of amplifications. The amplification was stopped after 19 cycles. The results of this series of amplifications are seen in FIG. 3. […] For Dye 109a, similar features were seen where 1:10 was inhibitory (lane 18) and 1:30 was optimal (lanes 19 and 20).

[2] = test system: 78 bp amplicon from the anti-sense C construct; experiment: Amplification of nucleic acids in the presence of dye using a standard PCR machine (Example 34); format: biochemical; conditions: for amplicon synthesis (gel analysis, FIG. 2): 20 cycles
Protocol: The experiment shown in Example 33 was repeated using a standard PCR machine for synthesis to see if the effects observed in Example 33 was dependent upon the rapid heating and cooling steps used in the Light Cycler.
A master mixture was made up of: • 500 µl of 2× PCR mix described in example 33 • 20 µl of 25 mM MgCl2 • 175 µl of DEPC treated H2O • 10 ul of 1 u/l ung (Epicentre) • 10 µl of 10 mg/ml BSA (New England Biolabs, Beverly, Mass.) • 10 l Taq polymease (Perkin Elmer)+10 µl of TaqStart (Clontech) PCR conditions were 2.5 µl of target template+2.0 l of dye was added to 15.5 µl of Master mixture incubated at 45° C. for 10 minutes and then amplified using cycles of: • a) 94° C. for 30 seconds • b) 65° C. for 30 seconds • c) 72° C. for 1 minute
A duplicate set of samples was amplified with one set being taken out after 20 cycles of amplification and the second set undergoing 40 cycles. […] The other effect previously observed was also seen, i.e. non-target amplicon synthesis seen in the no Dye reaction (lane 1) was reduced with the 1:200 dilution of SYBR Green and the 1:10 dilution of Dye 109 again repeating the results of Example 33.

Compound: CCCN(CCCN(C)C)c1cc(/C=C2/Sc3ccccc3N2C)c2ccccc2[n+]1-c1ccccc1 [SYBR Green, reference compound]
- amplification (gel analysis, FIG. 3) ([1]; 1:800 dilution of SYBR Green, lanes 4 and 5): best amplification
- amplification (gel analysis, FIG. 3) ([1]; SYBR Green dilutions on either side of 1:800): sharp drop off
- amplicon synthesis (gel analysis, FIG. 2) ([2]; 1:200 dilution of SYBR Green, lanes 5 and 6): a single discrete band
- amplicon synthesis (gel analysis, FIG. 2) ([2]; all other SYBR Green dilutions): no synthesis was evident
- non-target amplicon synthesis compared to the no Dye reaction ([2]; 40 cycles, 1:200 dilution of SYBR Green): reduced
